# Test system: serum triglyceride levels
# Assay: Rabbit hypercholesteremic model (2% cholesterol diet, 7 weeks): serum triglycerides
# Format: in vivo, Male New Zealand white rabbits
# Details: hypercholesterol diet, n = 5, P5P 10 mg/kg/day, simvastatin 5 mg/kg/day oral
# Method: The anti-atherogenic effects of P5P alone and in combination with simvastatin in a rabbit hypercholesteremic model were determined. The study compared the effects of P5P and simvastatin alone and in combination on atherosclerotic lesion formation, lipid profile (total cholesterol, LDL, HDL, triglycerides and oxidized LDL), homocysteine levels and various markers of inflammation (CRP, IL-1β, IL-6, IFN-γ and TNF-α).
# Animals—Male New Zealand white rabbits 2.0-3.0 kg.
# Animal Feed—The normocholesterol diet is Co-op Complete Rabbit Feed manufactured by Federated Co-operatives Limited (Saskatchewan). The 2% cholesterol diet is Test Diet 0009459 MRab/2% Chol 3/16 manufactured by Purina Mills (USA).
# The rabbits were fed the normocholesterol and 2% cholesterol diet ad libitum. All animals received a timothy cube after blood sampling. […]
# Group 3: Hypercholesterol diet+P5P 10 mg/kg/day
# Group 4: Hypercholesterol diet+simvastatin 5 mg/kg/day
# Group 5: Hypercholesterol diet+P5P 10 mg/kg/day+simvastatin 5 mg/kg/day
# The rabbits were fed a normocholesterol or hypercholesterol diet for a total of 7 weeks. The normocholesterol rabbits were treated once per day with 1 ml of ethanol and 5 ml of RO water via a nasogastric tube. The hypercholesterol animals were treated once per day with either P5P (10 mg/kg), simvastatin (5 mg/kg) or a combination of P5P and simvastatin (P5P 10 mg/kg; simvastatin 5 mg/kg) via a nasogastric tube. The P5P was dissolved in 5 ml of 0.05 N NaOH so that the pH of the solution is approximately 7. The simvastatin was dissolved in 1 ml of anhydrous ethanol.
# Five ml of blood was collected from the marginal ear vein of the rabbits at 0, 2, 4 and 6 weeks. Prior to blood collection the animals were sedated with 1 mg/kg of acepromazine. Following collection, the serum was separated. The serum is aliquoted (500 μl) and frozen at −80° C. until used for the assaying various lipids (total cholesterol, LDL, HDL, triglycerides, oxidized LDL) and cytokines (CRP, IL-1β, IL-6, IFN-γ and TNF-α).
# At 7 weeks, the animals were anesthetized and 10 ml of blood was collected. Then the animals were euthanized, and the heart and thoracic aorta removed. The hearts and aortas were frozen in liquid nitrogen or an ethanol dry ice bath and stored at −80° C. until analyzed.
# Test Articles—P5P (pyridoxal 5′-phosphate monohydrate) was purchased from Sigma (P82870). Simvastatin is obtained from ACIC Fine Chemicals Inc. Two test compound vials were provided for each animal for each day. The first vial (small) was diluted in 1 ml of anhydrous ethanol. The second vial was diluted in either 5 ml of RO water or 5 ml of 0.05 N NaOH. The diluent for each vial was clearly marked on the vial. The test solutions were prepared fresh each day just before they were administered to the animals. The stock P5P was stored in a refrigerator at 4° C. under low light conditions. The simvastatin was stored following the manufacture recommendations. The individual test vials were stored in a refrigerator at 4° C. under low light conditions.
# Test Article(s) Dose, Route of Administration and Duration—The rabbits were treated orally with the drugs, once per day for a total of 7 weeks. The contents of vial one (small; 1 ml) were given to the animals first, followed by the contents of vial 2 (large; 5 ml). The test compound treatments were followed by a 5 ml RO water chaser.
smiles,measurement,setting,value
"CCC(C)(C)C(=O)O[C@H]1C[C@@H](C)C=C2C=C[C@H](C)[C@H](CC[C@@H]3C[C@@H](O)CC(=O)O3)[C@H]21 [Simvastatin, simvastatin, reference compound]","Triglycerides, Week 2",,0.986 mmol/L
same,"Triglycerides, Week 4",,1.588 mmol/L
same,"Triglycerides, Week 6",,2.158 mmol/L
same,"Triglycerides, Week 7",end of study,1.766 mmol/L
same,"Triglycerides, Week 0",start of study,0.956 mmol/L

# Reference: patent publication US20060148763A1, “Compounds and methods for regulating triglyceride levels” (priority 2005, published 2006)
